Among the data in patent US12013390B2, “EBIV nucleic acid composition and application thereof” (Wuhan Institute of Virology, Chinese Academy of Sciences, priority 2022, dated 2024) are Cell viability values, retold here.

For this data set, the system named is BHK-21 cells. Description: Cell viability per well (percentage of cells remaining) observed under a microscope in the drug screening test. Type of data set: cell-based, hamster. The settings on record: infected BHK-21 cells with drug, 36 hours. On the procedure: (1) A 96-well plate for BHK-21 cells was prepared. The cells were planked at 10^4 cells/well. The plate was cultured in a cell incubator with a temperature of 37° C. and a CO2 concentration of 5%. The drug screening test was conducted when the cells grew to 40-50%. The drug to be tested was dissolved in dimethyl sulfoxide. Then the drug was diluted to 100 μM with DMEM medium containing 2% FBS. After that, the drug was subjected to serial 2-fold dilution to obtain the dilution gradient with the concentration of 100 μM, 50 μM, 25 μM, 12.5 μM, 6.25 μM, 3.125 μM, and 1.5625 μM, respectively (the concentration of DMSO in the diluted drug shall be <0.1%).
(2) The original culture medium was removed from the 96-well plate. The virus was inoculated into the 96-well plate at an MOI of 0.01 and a volume of 100 μL/well. At the same time, the diluted drugs to be tested were respectively added into the same 96-well plate at 100 μL/well and mixed well with the virus solution. The plate was incubated in a cell incubator with a temperature of 37° C. and a CO2 concentration of 5% for 36 hours before detection.
(4) Cell viability per well (and the percentage of cells remaining per well) was observed under a microscope and the half-maximal effect concentration (EC50) of the drug was calculated using GraphPad Prism 9 software and an EC50 graph was plotted.

In turn, `CC(C)=CCC(OC(=O)C=C(C)C)C1=CC(=O)c2c(O)ccc(O)c2C1=O` (stereo not drawn) [Beta, beta-dimethyl acryl shikonin] came in with a Cell viability of 70%.
Compound `C[C@@]12C(=O)OC(=O)[C@]1(C)[C@H]1CC[C@@H]2O1` [Cantharidin] came in with a Cell viability of 50%.
Compound `CC(C)=CCc1c(O)ccc(C(=O)/C=C/c2ccc(O)cc2)c1O` [Isobavachalcone] showed a Cell viability of 30%.
In turn, Clinodiside Aogenin A showed a Cell viability of 100%. Under “listed as clinodiside A”, this compound yielded a Cell viability of 100%.
`Oc1cc(O)c2c(c1)O[C@H](c1cc(O)c(O)c(O)c1)[C@H](O)C2` [Epigallocatechol] had a Cell viability of 0%.
Consider `C=C[C@H]1[C@H](O[C@@H]2O[C@H](CO)[C@@H](O)[C@H](O)[C@H]2O)OC=C(C(=O)OC)[C@H]1CC(=O)O` [Secoxyloganin], for which the Cell viability turned out to be 100%. Under “listed as secoxyloganin”, this compound came in with a Cell viability of 100%.
The compound `C[C@H](CCC(=O)O)[C@H]1CC[C@H]2[C@@H]3[C@H](O)C[C@@H]4C[C@H](O)CC[C@]4(C)[C@H]3CC[C@]12C` [Chenodeoxycholic acid, reference compound] had a Cell viability of 70%.
Turning to `CC(C)=CCc1cc2c(cc1O)oc(=O)c1c3ccc(O)cc3oc21` [Psoralidin], the Cell viability is 50%.
The compound `COc1ccc(-c2cc(=O)c3c(O)cc(O[C@@H]4O[C@H](CO[C@@H]5O[C@@H](C)[C@H](O)[C@@H](O)[C@H]5O)[C@@H](O)[C@H](O)[C@H]4O)cc3o2)cc1O` [Diosmin, reference compound] had a Cell viability of 100%. Also, where the note is “listed as diosmin”, the Cell viability amounted to 100%.
